Assay results as given in patent US20120255051A1, “HERBICIDE TOLERANT PLANTS” (priority 2009, published 2012).

System: Brassica plants comprising mutant AHAS alleles
Assay: Field trial, pre-planting treatment (0, 10, 20, 30 g a.i./ha), two locations in Canada: ERG, EST1, EST2, PPTOX, VIG1, VIG2, VIG3 scores
Assay type: in vivo, Brassica napus
Conditions: for establishment (EST2) score, Av / phytotoxicity (PPTOX) score, Av / vigor1 (VIG1) score, Av / vigor2 (VIG2) score, Av: AHAS1 HETO108/AHAS3 HETO104
Excerpt: Tests were set up and conducted to asses the growth and performance of plants comprising AHAS full knock-out alleles, and to further analyze the correlation between the presence of full knockout and missense AHAS genes in Brassica plants and plant growth and herbicide tolerance of the Brassica plants in the field. To this end, the Brassica plants identified in Example 1 and 2 were backcrossed two times with an elite parent line, and subsequently selfed twice to obtain homozygous plants (BC2S2). Plants were grown as row plots in a split plot design with three replicates (main plots=herbicide treatments, subplots=genotypes) at two locations in Canada. Treatment pre-planting was carried out on the soil about two days before sowing with a dose of 0 (treatment A), 10 (treatment B), 20 (treatment C) or 30 (treatment D) g a.i./ha of thiencarbazone methyl. Herbicide tolerance was measured by scoring for different parameters. The parameter emergence (ERG) was scored at the cotyledon stage on a scale 1-9, where 1 means late emergence and 9 means early emergence. Establishment was scored 14 days after sowing (EST1) and 21 days after sowing (EST2). Scores were from 1 to 9, where 1 is the worst establishment (least plants that emerged), and 9 is the best establishment (most plants emerged). Phytotoxicity (PPTOX) was determined after establishment. Plants were evaluated on a scale of 1 to 9, where 1=completely yellowing, 5=50% of plant is yellow and 9=no yellowing. The vigor scores (see above) were determined at 1-2 leaf stage (VIG1), 7 days after VIG1 (VIG2) and 14 days after VIG1 (VIG3). The average values (Av) and standard deviations (SD) of the scores for the different parameters are represented in Table 7a-g.
Further, the contribution of the knock-out allele to herbicide tolerance conferred by the missense allele was calculated. First, the scores were corrected for a possible effect of the growth per se, independent of herbicide treatment. To this end, the scores for treatments B, C and D were divided by the scores for treatment A for the same genotype and for the same parameter (corrected herbicide tolerance scores). Next, the effect of the knock-out allele to these corrected herbicide tolerance scores obtained by the missense allele was calculated. Therefore, the corrected herbicide tolerance scores for the missense—knock-out allele combination was divided by the corrected herbicide tolerance scores for the missense allele—wild-type combination. In case the knock-out allele has no effect on herbicide tolerance conferred by the missense allele, this ratio should be 1. In case the knock-out allele positively contributes to the herbicide tolerance conferred by the missense allele, this ratio should be higher than 1. The results for the contribution of the knock-out allele to herbicide tolerance conferred by the missense allele as calculated above are shown in table 8.

[1] = AHAS1 HETO108, AHAS3 HETO104, treatment B 10 g a.i./ha pre-planting, Location A
[2] = AHAS1 HETO108, AHAS3 HETO104, treatment B 10 g a.i./ha pre-planting, Location B
[3] = AHAS1 HETO108, AHAS3 HETO104, treatment C 20 g a.i./ha pre-planting, Location A
[4] = AHAS1 HETO108, AHAS3 HETO104, treatment C 20 g a.i./ha pre-planting, Location B
[5] = AHAS1 HETO108, AHAS3 HETO104, treatment D 30 g a.i./ha pre-planting, Location A
[6] = AHAS1 HETO108, AHAS3 HETO104, treatment D 30 g a.i./ha pre-planting, Location B
[7] = AHAS1 HETO108, AHAS3 HETO111, treatment B 10 g a.i./ha pre-planting, Location A
[8] = AHAS1 HETO108, AHAS3 HETO111, treatment B 10 g a.i./ha pre-planting, Location B
[9] = AHAS1 HETO108, AHAS3 HETO111, treatment C 20 g a.i./ha pre-planting, Location A
[10] = AHAS1 HETO108, AHAS3 HETO111, treatment C 20 g a.i./ha pre-planting, Location B
[11] = AHAS1 HETO108, AHAS3 HETO111, treatment D 30 g a.i./ha pre-planting, Location A
[12] = AHAS1 HETO108, AHAS3 HETO111, treatment D 30 g a.i./ha pre-planting, Location B
[13] = AHAS1 HETO108, AHAS3 WT (HETO108+HETO104 series), treatment B 10 g a.i./ha pre-planting, Location A
[14] = AHAS1 HETO108, AHAS3 WT (HETO108+HETO104 series), treatment B 10 g a.i./ha pre-planting, Location B
[15] = AHAS1 HETO108, AHAS3 WT (HETO108+HETO104 series), treatment C 20 g a.i./ha pre-planting, Location A
[16] = AHAS1 HETO108, AHAS3 WT (HETO108+HETO104 series), treatment C 20 g a.i./ha pre-planting, Location B
[17] = AHAS1 HETO108, AHAS3 WT (HETO108+HETO104 series), treatment D 30 g a.i./ha pre-planting, Location A
[18] = AHAS1 HETO108, AHAS3 WT (HETO108+HETO104 series), treatment D 30 g a.i./ha pre-planting, Location B
[19] = AHAS1 HETO108, AHAS3 WT (HETO108+HETO111 series), treatment B 10 g a.i./ha pre-planting, Location A
[20] = AHAS1 HETO108, AHAS3 WT (HETO108+HETO111 series), treatment B 10 g a.i./ha pre-planting, Location B
[21] = AHAS1 HETO108, AHAS3 WT (HETO108+HETO111 series), treatment C 20 g a.i./ha pre-planting, Location A
[22] = AHAS1 HETO108, AHAS3 WT (HETO108+HETO111 series), treatment C 20 g a.i./ha pre-planting, Location B
[23] = AHAS1 HETO108, AHAS3 WT (HETO108+HETO111 series), treatment D 30 g a.i./ha pre-planting, Location A
[24] = AHAS1 HETO108, AHAS3 WT (HETO108+HETO111 series), treatment D 30 g a.i./ha pre-planting, Location B
[25] = 10 g a.i./ha pre-planting (B), Location A
[26] = 10 g a.i./ha pre-planting (B), Location B
[27] = 20 g a.i./ha pre-planting (C), Location A
[28] = 20 g a.i./ha pre-planting (C), Location B

COC(=O)c1csc(C)c1S(=O)(=O)NC(=O)n1nc(OC)n(C)c1=O [thiencarbazone-methyl, methyl 4-[(4,5-dihydro-3-methoxy-4-methyl-5-oxo-1H-1,2,4-triazol-1-yl)carbonylsulfamoyl]-5-methylthiophene-3-carboxylate]
emergence (ERG) score Av [1]: 6.00 | establishment (EST1) score Av, 14 days after sowing [1]: 6.33 | emergence (ERG) score Av [2]: 4.00 | establishment (EST1) score Av, 14 days after sowing [2]: 5.00 | emergence (ERG) score Av [3]: 4.00 | establishment (EST1) score Av, 14 days after sowing [3]: 4.00 | emergence (ERG) score Av [4]: 5.00 | establishment (EST1) score Av, 14 days after sowing [4]: 5.00 | emergence (ERG) score Av [5]: 5.00 | establishment (EST1) score Av, 14 days after sowing [5]: 5.00 | emergence (ERG) score Av [6]: 4.67 | establishment (EST1) score Av, 14 days after sowing [6]: 5.33 | emergence (ERG) score Av [7]: 5.33 | establishment (EST1) score Av, 14 days after sowing [7]: 6.00 | emergence (ERG) score Av [8]: 4.33 | establishment (EST1) score Av, 14 days after sowing [8]: 6.00 | emergence (ERG) score Av [9]: 4.67 | establishment (EST1) score Av, 14 days after sowing [9]: 5.33 | emergence (ERG) score Av [10]: 5.00 | establishment (EST1) score Av, 14 days after sowing [10]: 5.67 | emergence (ERG) score Av [11]: 5.00 | establishment (EST1) score Av, 14 days after sowing [11]: 5.33 | emergence (ERG) score Av [12]: 4.33 | establishment (EST1) score Av, 14 days after sowing [12]: 3.67 | emergence (ERG) score Av [13]: 6.67 | establishment (EST1) score Av, 14 days after sowing [13]: 6.67 | emergence (ERG) score Av [14]: 4.33 | establishment (EST1) score Av, 14 days after sowing [14]: 4.67 | emergence (ERG) score Av [15]: 5.00 | establishment (EST1) score Av, 14 days after sowing [15]: 5.00 | emergence (ERG) score Av [16]: 4.33 | establishment (EST1) score Av, 14 days after sowing [16]: 4.67 | emergence (ERG) score Av [17]: 4.67 | establishment (EST1) score Av, 14 days after sowing [17]: 4.67 | emergence (ERG) score Av [18]: 5.00 | establishment (EST1) score Av, 14 days after sowing [18]: 5.33 | emergence (ERG) score Av [19]: 6.33 | establishment (EST1) score Av, 14 days after sowing [19]: 6.33 | emergence (ERG) score Av [20]: 4.33 | establishment (EST1) score Av, 14 days after sowing [20]: 5.33 | emergence (ERG) score Av [21]: 5.33 | establishment (EST1) score Av, 14 days after sowing [21]: 6.00 | emergence (ERG) score Av [22]: 5.00 | establishment (EST1) score Av, 14 days after sowing [22]: 5.67 | emergence (ERG) score Av [23]: 5.00 | establishment (EST1) score Av, 14 days after sowing [23]: 5.33 | emergence (ERG) score Av [24]: 3.33 | establishment (EST1) score Av, 14 days after sowing [24]: 3.67 | establishment (EST2) score, Av [25]: 6.33 | phytotoxicity (PPTOX) score, Av [25]: 6.00 | vigor1 (VIG1) score, Av [25]: 6.33 | vigor2 (VIG2) score, Av [25]: 7.33 | establishment (EST2) score, Av [26]: 5.00 | vigor2 (VIG2) score, Av [26]: 5.00 | establishment (EST2) score, Av [27]: 4.33 | vigor1 (VIG1) score, Av [27]: 5.00 | vigor2 (VIG2) score, Av [27]: 6.00 | establishment (EST2) score, Av [28]: 5.00 | phytotoxicity (PPTOX) score, Av [28]: 6.00 | vigor1 (VIG1) score, Av [28]: 5.00
